Consider one molecule from paper PMC6678097, “Machilin A Inhibits Tumor Growth and Macrophage M2 Polarization Through the Reduction of Lactic Acid” (Cancers, 2019).

The subject of series [1] is human liver cytochrome P450 1A1 (CYP1A1). Particulars: cited from earlier work.
A further series concerns Huh7. Put plainly: Cell viability, MTT assay. It is filed as cell-based. Particulars: Homo sapiens, Huh-7, normoxic. The method, then:
(§1) Human colon cancer cells (WiDr, DLD-1, RKO, and HT29) and murine Lewis lung carcinoma (LLC) cells were purchased from the American Type Culture Collection (Manassas, VA, USA). Human breast cancer MCF7 cells, human hepatocellular carcinoma cells (Huh-7, HepG2, and Hep3B), and human lung cancer cells (HCC-95 and NCI-H1793) were provided by the Korean Cell Line Bank (Seoul, Korea). The HCC-95 and NCI-H1793 cells were grown in a Roswell park memorial institute medium (RPMI) 1640 medium (HyClone^TM; GE Healthcare, Chicago, IL, USA). All other cells were grown in Dulbecco’s modified eagle medium (DMEM) supplemented with L-glutamine (200 mg/L), 10% (v/v) heat-inactivated fetal bovine serum (FBS; Sigma-Aldrich, St. Louis, MO, USA), and antibiotics (100 U/mL penicillin and 100 μg/mL streptomycin; Thermo Fisher Scientific, Waltham, MA, USA) in a humidified incubator at 37 °C and with 5% CO2 before the experiments. For induction of hypoxia condition (1% oxygen), the cells were cultured were cultured in the mixture of 94% nitrogen and 5% CO2/air at 37 °C for 24 h in cell culture incubator. Cytotoxicity of MA was evaluated using an MTT assay. Briefly, cells were incubated in 24-well plates with specified concentrations of MA for 24 or 48 h. Then, MTT solution (2.0 mg/mL) was added to each well. After 4 h of incubation at 37 °C and 5% CO2 in a cell culture incubator, the conditioned media were removed, and the amount of formazan crystals formed in living cells was estimated by measuring the absorbance at 540 nm using a microplate reader (Spectramax M2; Molecular Devices, CA, USA). The respective percentages of living cells were compared with a control treatment.

A further series deals with HepG2. As to the kind of experiment: Cell viability, MTT assay. Type of series: cell-based. Particulars: Homo sapiens, normoxic. The method, then: as §1
For orientation: Tetrazolium dyes change colour on reduction, which living cells bring about.

The subject of the next series is DLD-1. As to the kind of experiment: Cell viability, MTT assay. It is filed as cell-based. Particulars: Homo sapiens, normoxic. The procedure:
as §1

Another series deals with WiDr. Put plainly: Cell viability, MTT assay. Type of series: cell-based. Particulars: Homo sapiens, normoxic. The procedure: as §1
The next series deals with HCC-95. As to the kind of experiment: Cell viability, MTT assay. It is filed as cell-based. Particulars: Homo sapiens, HCC95, normoxic. The method, then:
as §1

The next series has as its system RKO. Put plainly: Cell viability, MTT assay. It is filed as cell-based. Particulars: Homo sapiens, normoxic. The procedure:
as §1

In a further series the test system is MCF-7. As to the kind of experiment: Cell viability, MTT assay. It is filed as cell-based. Particulars: Homo sapiens, MCF7, normoxic. The procedure:
as §1

A further series relates to NCI-H1793. Put plainly: Cell viability, MTT assay. It is filed as cell-based. Particulars: Homo sapiens, normoxic. The procedure:
as §1

The next series concerns HT29. Put plainly: Cell viability, MTT assay. It is filed as cell-based, human. The method, then:
as §1

Another series deals with Hep3B. As to the kind of experiment: Cell viability, MTT assay. Type of series: cell-based, human. The method, then:
as §1

In series [2] the test system is RAW264.7 macrophage cells. Put plainly: Viability of macrophage cells, MTT. Type of series: cell-based. Particulars: direct treatment, 24 h. The procedure:
Figure S10. The viabilities of HUVECs and RAW264.7 cells on MA. (A) HUVECs were treated with indicated concentration of machilin A for 24 h. The viabilities of cells were evaluated by MTT assay.
(B ) HUVECs seeded to the Matrigel-coated wells treated with machilin A for 24 h. ( C) Raw 264.7 macrophage cells were treated with indicated concentration of machilin A for 24 h. The viabilities of cells were evaluated by MTT assay.
(1 picture or pasted object on this page, not shown here)

Where [3] appears, read: hypoxic and normoxic conditions, 48 h.

Molecules are shown by their SMILES.

In the case of `C[C@H](Cc1ccc2c(c1)OCO2)[C@@H](C)Cc1ccc2c(c1)OCO2` [MA, bis(3,4-methylenedioxy)-8,8’-lignan], the “inhibitory effect on drug metabolism” value in series [1] is on record as “selective inhibitory effect”. Besides, the IC50 with Huh7 stood at 198 ± 26.7 µM; in the series on HepG2, 156 ± 23.2 µM; in the series with DLD-1, 423 ± 17.6 µM; in the series with WiDr it was 17.2 ± 5.75 µM; in the series on HCC-95 it was 228 ± 13.9 µM; in the series with RKO, 192 ± 15.2 µM. For the same molecule, the IC50 in the series on MCF-7 is 217 ± 12.9 µM; in the series on NCI-H1793, 96.7 ± 5.32 µM; in the series on HT29 (Homo sapiens, HT-29, normoxic) it was 107 ± 4.66 µM; in the series on Hep3B (Homo sapiens, normoxic), 140 ± 8.55 µM. Further, the growth of cells entry with HT29 (setting [3]) and in the series with Hep3B (setting [3]) was “substantially inhibited the growth” each time. The “growth of RAW264.7 macrophage cells” value in series [2] was “did not directly inhibit”.

Usually IC50 stands for the concentration needed to halve the response being measured. A higher IC50 goes with weaker potency in that assay.
